Assay results published in patent publication US20240295560A1, “PANCREATIC CANCER DIAGNOSIS ASSISTANCE METHOD AND PHARMACEUTICAL COMPOUND FOR TREATING PANCREATIC CANCER” (TOKYO METROPOLITAN GERIATRIC HOSPITAL AND INSTITUTE OF …, priority 2020, published 2024).

Tests used:
[1] = system: GM2 expression in MIA PaCa-2 cells; experiment: GM2 expression and cell clusters in three-dimensional culture with AMP-dNM or MAP kinase inhibitor; assay type: cell-based
Experimental: MIA PaCa-2 cells were cultured on ultra-low attachment plates at a concentration of 1.0×10^4 cells/well (24-well plate: Corning) for 7 days. Cell clusters were obtained. Therefore, the number of GM2-positive cells increased in three-dimensional culture. In this example, the effects of AMP-dNM or MAP kinase inhibitor on GM2 expression were examined. Under the same conditions as in Example 5, MIA PaCa-2 cells were three-dimensionally cultured, and the expression of GM2 was measured by adding AMP-dNM (10 μM) which is an inhibitor of glycolipid synthesis, or PD0325901 (1 μM) which is a MAP kinase inhibitor.

[2] = system: MIA PaCa-2 cells (GM2-positive vs GM2-negative); experiment: sensitivity of GM2-expressing cells to anticancer drugs, proliferation rate by ATP assay; assay type: cell-based; settings: drug at 10 μM or 100 μM, incubated 3 days, ATP assay (FIG. 6)
Experimental: In this example, the sensitivity of GM2-expressing cells to anticancer drugs (gemcitabine, fluorouracil [5-FU], and Abraxane) were examined.
MIA PaCa-2 cells (3.0×10^3 cells/well) were seeded in 96-well plates. After 1 day, each anticancer drug was added thereto at a concentration of 10 μM or 100 μM. The cells were incubated for 3 days, and the proliferation rate of the cells was measured by ATP assay.

[3] = AMP-dNM 10 μM, three-dimensional culture of MIA PaCa-2 cells (FIG. 8(B))

In the case of `OC[C@@H]1[C@@H](O)[C@H](O)[C@@H](O)CN1CCCCCOCC12CC3CC(CC(C3)C1)C2` [AMP-dNM, N-(5′-adamantane-1′-yl-methoxy)-pentyl-1-deoxynojirimycin], the GM2 expression ([1]; AMP-dNM 10 μM, three-dimensional culture of MIA PaCa-2 cells (FIG. 8(A))) is reported as “decreased”, the “microvilli in the cell clusters” value [1, 3] is reported as “hardly observed” and the “vacuoles in the cell clusters” value [1, 3] is reported as “conspicuously observed”.
With `O=C(NOC[C@H](O)CO)c1ccc(F)c(F)c1Nc1ccc(I)cc1F` [PD0325901] the GM2 expression ([1]; PD0325901 1 μM, three-dimensional culture of MIA PaCa-2 cells (FIG. 8(C))) was “decreased” and the “size of cell clusters” value ([1]; PD0325901 1 μM, three-dimensional culture of MIA PaCa-2 cells (FIG. 8(D))) was “clearly reduced”.
With `O=c1[nH]cc(F)c(=O)[nH]1` [fluorouracil [5-FU], fluorouracil] the “proliferation rate of GM2-positive cells compared with GM2-negative cells” value [2] was “effective against GM2-positive cells”.
In the case of `Nc1ccn([C@@H]2O[C@H](CO)[C@@H](O)C2(F)F)c(=O)n1` [gemcitabine], the “proliferation rate of GM2-positive cells compared with GM2-negative cells” value [2] is reported as “effective against GM2-positive cells”.
